Series [1] has as its system MES-induced seizures in mice. The series is described as follows: Maximal electroshock seizure (MES) test. It is filed as in vivo. Particulars: for protection in MES screening / responders at 100 mg/kg: 100 mg/kg i.p., 0.5 h; for protection in MES screening: four mice; for responders at 100 mg/kg / ED50: Mus musculus, ip; for responders at 100 mg/kg: read-out: MES screening: number of mice protected/number of mice tested (converted); for ED50: mice, pretreatment time 0.5 h, (95% confidence limits). The gist of the method:
(§1)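 Adult male Albino Swiss mice (22–26 g), compounds suspended in 1% aqueous Tween 80, single i.p. injection, tested 0.5 h post-dose. Screening at 100 mg/kg with four mice per group; ED50 from 3–4 groups of eight. PI = TD50 (chimney test) / ED50.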
A general note: Protection in the maximal electroshock model is a classic sign of anticonvulsant action.

Series [2] deals with 6 Hz (32 mA) seizures in mice. The series is described as follows: 6 Hz (32 mA) psychomotor seizure model. The format is in vivo. Particulars: Mus musculus, ip; for responders at 100 mg/kg: 100 mg/kg i.p., 0.5 h; for ED50: mice, pretreatment time 0.5 h, (95% confidence limits). The method, boiled down: as §1
For series [3], the system named is 6 Hz (44 mA) seizures in mice. The series is described as follows: 6 Hz (44 mA) seizure model of drug-resistant epilepsy. The format is in vivo. The conditions noted are these: Mus musculus, ip, pretreatment time 0.5 h, (95% confidence limits). On the procedure:
Adult male Albino Swiss mice that weighed between 22 and 26 g were used in the in vivo studies. They were housed under standardized housing conditions in colony cages and had free access to food as well as tap water. The animals were left to adapt under laboratory conditions for 7 days. All procedures involving animals and their care were performed in accordance with the current European Community and Polish legislation on animal experimentation.
In the initial screening studies, four mice per group were randomly assigned to each experimental group (each mouse was used only once). To evaluate the ED50 or TD50 values, 3–4 groups that consisted of eight animals were injected with various doses of tested compounds. The protective indexes (PIs) for the compounds that were investigated and reference ASDs were calculated by dividing the TD50 value, as determined in the chimney test (or rotarod test), by the respective ED50 value, as determined in the MES, scPTZ, or 6 Hz (32 mA or 44 mA) tests (PI = TD50/ED50). The PIs is a measure of the potential therapeutic window of the tested agent.
All substances were suspended in Tween 80 (1% aqueous solution) and administered i.p. as a single injection at a dose of 10 mL/kg. […]
Taking into consideration the potent protection of 53 and 60 in the 6 Hz (32 mA) seizure model, these compounds were also evaluated by applying a higher current intensity of 44 mA. […]

For series [4], the system named is ivPTZ seizure threshold in mice. The series is described as follows: Timed ivPTZ seizure threshold test. It is filed as in vivo. The conditions noted are these: 50 mg/kg i.p., 0.5 h before test; for increase of threshold for generalized clonus with loss of righting reflex / increase of threshold for the first myoclonic twitch: vs control. As to the method:
(§2) In studies assessing the acute effect of compounds 53 and 60 on the ivPTZ seizure threshold and neuromuscular strength, compounds 53 and 60 was suspended in a 1% solution of Tween 80 and administered i.p., at a dose of 10 mL/kg body weight. Each experimental group consisted of 9–12 animals (ivPTZ seizure threshold test) or 9−10 animals (grip strength test). The timed ivPTZ test was employed to evaluate the acute effect of compounds 53 and 60 on the seizure thresholds for (1) the first myoclonic twitch, (2) generalized clonic seizure with loss of righting reflex, and (3) forelimb tonus. The experimental procedure of the timed ivPTZ test was described in detail elsewhere. The acute effect of compounds 53 and 60 on neuromuscular strength was quantified using the grip-strength apparatus (BIOSEB, Chaville, France) according to the method that is described elsewhere. The results are depicted in Figure 2 (ivPTZ seizure threshold test, see Section 3 Results and Discussion) and Figure 3 (grip strength test, see Section 3 Results and Discussion).
The timed ivPTZ test was employed to further evaluate the effects of compounds 53 and 60 on seizure susceptibility in mice. The ivPTZ seizure test is an extremely sensitive method for assessing seizure thresholds in rodents. In this method, the threshold PTZ dose for several seizure endpoints was determined.
Figure 2 Acute effects of 53 and 60 on the threshold for the first myoclonic twitch (A), generalized clonus (B), and forelimb tonus (C) in the ivPTZ seizure threshold test in mice. Compounds 53 and 60 were administered i.p. 0.5 h before the seizure test. Control animals received vehicle only. Each experimental group consisted of 9–12 animals. Each bar represents the mean (mg/kg PTZ) + SEM. ** p < 0.01, *** p < 0.001, **** p < 0.0001 vs. the control group (Student’s t-test).

Another series deals with mice. Nature of the series: Grip strength test (neuromuscular strength). The conditions noted are these: 50 mg/kg i.p., 0.5 h. It is filed as in vivo. As to the method: as §2
Figure 3 Acute effects of 53 and 60 on the neuromuscular strength in mice. Compounds 53 and 60 were administered i.p. 0.5 h before the seizure test. Control animals received vehicle only. Each experimental group consisted of 9–10 animals. Each bar represents the mean + SEM grip strengths in millinewtons per gram of mouse body weight (mN/g).

The next series relates to Na+ channel (site 2). Nature of the series: Na+ channel (site 2) radioligand binding. Particulars: rat cerebral cortex.
Series [5] addresses T1, Calcium Cav1.2 channels (dihydropyridine site) (Homo sapiens, UniProt Q13936).
T1 construct: host or cells: HEK-293
The series is described as follows: Calcium Cav1.2 channel binding (dihydropyridine site, antagonist radioligand). The conditions noted are these: 10 µM; human recombinant HEK-293 cell; read-out: % Inhibition of Control Specific Binding, Cav1.2 (dihydropyridine site).
Procedure: Binding/functional studies were carried out commercially in Eurofins Laboratories (Poitiers, France) and Eurofins Panlabs Discovery Services Taiwan, Ltd. (New Taipei City, Taiwan) using testing procedures that were reported previously (for details see Table S2).

Setting [6] is: four mice, read-out: protection in 6 Hz (32 mA) screening.
Setting [7] is: read-out: 6 Hz (32 mA) screening: number of mice protected/number of mice tested (converted).

As usually defined, the ED50 is the dose that gives a 50% effect, or the effect in half of the subjects. The term inhibition denotes the percentage by which the read-out fell short of the control.

Like-named read-outs stand apart in the source and are kept apart here.

T1 sequence (Q13936 whole entry): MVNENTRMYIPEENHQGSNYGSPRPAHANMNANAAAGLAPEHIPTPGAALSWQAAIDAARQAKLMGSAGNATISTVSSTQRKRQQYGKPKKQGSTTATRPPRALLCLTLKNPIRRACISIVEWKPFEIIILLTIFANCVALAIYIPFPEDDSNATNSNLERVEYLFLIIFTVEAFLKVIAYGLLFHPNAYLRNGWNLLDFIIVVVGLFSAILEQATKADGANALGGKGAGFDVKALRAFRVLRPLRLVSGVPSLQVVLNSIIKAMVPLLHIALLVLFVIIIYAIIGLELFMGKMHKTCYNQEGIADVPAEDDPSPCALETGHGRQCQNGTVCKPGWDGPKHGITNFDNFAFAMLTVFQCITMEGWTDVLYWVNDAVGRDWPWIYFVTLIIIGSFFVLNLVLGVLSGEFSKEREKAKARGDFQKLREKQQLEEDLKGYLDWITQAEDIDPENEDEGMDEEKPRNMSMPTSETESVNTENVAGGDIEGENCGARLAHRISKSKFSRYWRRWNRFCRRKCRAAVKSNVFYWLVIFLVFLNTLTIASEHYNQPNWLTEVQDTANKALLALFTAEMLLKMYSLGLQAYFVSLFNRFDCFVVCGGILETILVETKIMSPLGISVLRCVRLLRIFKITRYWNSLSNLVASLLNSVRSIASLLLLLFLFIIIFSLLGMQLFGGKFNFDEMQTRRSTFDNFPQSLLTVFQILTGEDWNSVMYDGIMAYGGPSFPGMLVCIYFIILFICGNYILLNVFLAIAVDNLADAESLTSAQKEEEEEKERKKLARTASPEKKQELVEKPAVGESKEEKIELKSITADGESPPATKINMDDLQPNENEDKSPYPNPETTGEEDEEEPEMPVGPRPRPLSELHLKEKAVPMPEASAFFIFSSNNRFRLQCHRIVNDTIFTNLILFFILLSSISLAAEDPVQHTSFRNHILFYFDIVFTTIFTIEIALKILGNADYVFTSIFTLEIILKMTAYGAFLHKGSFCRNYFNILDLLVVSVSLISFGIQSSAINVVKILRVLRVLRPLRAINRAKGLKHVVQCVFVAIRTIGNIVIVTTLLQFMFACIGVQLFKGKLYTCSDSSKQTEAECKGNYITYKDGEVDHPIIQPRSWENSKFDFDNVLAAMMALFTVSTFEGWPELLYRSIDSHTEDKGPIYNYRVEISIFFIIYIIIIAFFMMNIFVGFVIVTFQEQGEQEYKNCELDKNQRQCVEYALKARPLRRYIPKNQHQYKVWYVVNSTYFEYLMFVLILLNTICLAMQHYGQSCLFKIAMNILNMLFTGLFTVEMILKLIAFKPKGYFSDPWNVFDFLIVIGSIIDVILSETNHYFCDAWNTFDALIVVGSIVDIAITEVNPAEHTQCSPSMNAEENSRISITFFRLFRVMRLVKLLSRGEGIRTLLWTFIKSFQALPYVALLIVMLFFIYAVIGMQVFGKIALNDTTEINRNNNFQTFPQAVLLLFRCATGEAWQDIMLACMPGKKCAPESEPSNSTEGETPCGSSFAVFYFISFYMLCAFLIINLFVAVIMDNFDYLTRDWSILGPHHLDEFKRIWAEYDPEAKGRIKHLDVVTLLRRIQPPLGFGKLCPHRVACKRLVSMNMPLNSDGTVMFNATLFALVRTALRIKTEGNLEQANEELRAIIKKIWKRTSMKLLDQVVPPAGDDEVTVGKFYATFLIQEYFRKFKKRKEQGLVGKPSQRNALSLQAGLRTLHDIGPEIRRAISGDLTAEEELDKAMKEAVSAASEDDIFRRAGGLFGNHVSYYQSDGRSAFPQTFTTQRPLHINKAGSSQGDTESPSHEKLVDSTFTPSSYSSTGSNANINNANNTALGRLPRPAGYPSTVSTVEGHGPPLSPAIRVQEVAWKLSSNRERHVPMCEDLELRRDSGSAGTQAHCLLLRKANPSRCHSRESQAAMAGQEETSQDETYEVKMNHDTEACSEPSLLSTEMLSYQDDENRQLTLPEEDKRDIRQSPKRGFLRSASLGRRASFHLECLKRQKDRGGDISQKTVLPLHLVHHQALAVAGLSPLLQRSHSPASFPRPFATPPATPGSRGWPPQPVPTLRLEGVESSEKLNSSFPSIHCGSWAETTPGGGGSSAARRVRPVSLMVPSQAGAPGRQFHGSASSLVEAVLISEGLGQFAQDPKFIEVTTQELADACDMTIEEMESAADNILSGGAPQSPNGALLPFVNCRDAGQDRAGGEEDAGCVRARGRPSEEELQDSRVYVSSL
T1 sequence (Q08289 whole entry partner): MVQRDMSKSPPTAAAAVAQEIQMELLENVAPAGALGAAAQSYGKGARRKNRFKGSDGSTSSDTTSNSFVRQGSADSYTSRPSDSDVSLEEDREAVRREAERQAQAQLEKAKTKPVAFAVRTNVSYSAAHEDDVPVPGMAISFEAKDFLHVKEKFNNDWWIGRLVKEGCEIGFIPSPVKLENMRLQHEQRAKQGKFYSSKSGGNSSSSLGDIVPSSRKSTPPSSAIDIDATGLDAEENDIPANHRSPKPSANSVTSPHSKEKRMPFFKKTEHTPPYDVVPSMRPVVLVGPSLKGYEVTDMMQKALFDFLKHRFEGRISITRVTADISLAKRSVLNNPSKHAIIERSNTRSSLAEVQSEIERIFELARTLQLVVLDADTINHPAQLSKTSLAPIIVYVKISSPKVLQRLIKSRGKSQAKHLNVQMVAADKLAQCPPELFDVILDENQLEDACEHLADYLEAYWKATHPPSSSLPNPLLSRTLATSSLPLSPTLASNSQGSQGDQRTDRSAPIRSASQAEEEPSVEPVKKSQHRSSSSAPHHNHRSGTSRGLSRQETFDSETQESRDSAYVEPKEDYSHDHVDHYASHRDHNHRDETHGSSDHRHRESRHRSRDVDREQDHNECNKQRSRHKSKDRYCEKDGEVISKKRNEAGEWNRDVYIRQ
T1 sequence (P54289 25-956 partner limits assumed): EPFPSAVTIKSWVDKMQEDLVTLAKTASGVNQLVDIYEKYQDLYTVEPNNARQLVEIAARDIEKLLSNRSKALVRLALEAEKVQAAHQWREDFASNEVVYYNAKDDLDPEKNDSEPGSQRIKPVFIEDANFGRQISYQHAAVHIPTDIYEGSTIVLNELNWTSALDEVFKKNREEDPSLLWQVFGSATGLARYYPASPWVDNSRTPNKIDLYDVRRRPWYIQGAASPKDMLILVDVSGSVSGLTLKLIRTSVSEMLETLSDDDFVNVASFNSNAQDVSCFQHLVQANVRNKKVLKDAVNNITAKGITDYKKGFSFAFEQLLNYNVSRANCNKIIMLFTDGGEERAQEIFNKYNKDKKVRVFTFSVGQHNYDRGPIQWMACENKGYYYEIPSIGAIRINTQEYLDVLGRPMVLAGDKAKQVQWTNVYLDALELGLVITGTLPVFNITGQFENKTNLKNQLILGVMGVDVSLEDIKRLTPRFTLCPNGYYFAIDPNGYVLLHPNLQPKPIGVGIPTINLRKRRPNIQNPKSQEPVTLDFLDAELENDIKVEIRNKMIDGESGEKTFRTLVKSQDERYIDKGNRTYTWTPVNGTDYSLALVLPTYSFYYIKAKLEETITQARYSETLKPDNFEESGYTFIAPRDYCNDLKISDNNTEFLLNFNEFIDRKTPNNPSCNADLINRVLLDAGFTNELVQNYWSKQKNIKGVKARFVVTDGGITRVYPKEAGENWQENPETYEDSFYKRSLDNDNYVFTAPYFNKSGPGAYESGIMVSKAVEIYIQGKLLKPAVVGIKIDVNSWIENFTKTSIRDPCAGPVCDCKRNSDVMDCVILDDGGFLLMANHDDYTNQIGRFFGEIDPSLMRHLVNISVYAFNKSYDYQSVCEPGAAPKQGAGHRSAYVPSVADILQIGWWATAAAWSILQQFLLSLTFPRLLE
T1 sequence (P54289 957-1103 partner limits assumed): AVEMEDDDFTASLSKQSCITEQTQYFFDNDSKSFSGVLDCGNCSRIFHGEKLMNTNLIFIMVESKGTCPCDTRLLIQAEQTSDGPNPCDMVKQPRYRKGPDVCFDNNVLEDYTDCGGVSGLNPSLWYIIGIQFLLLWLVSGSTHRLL

With `CC(=O)NC(C(=O)N1CCN(c2cccc(C(F)(F)F)c2)CC1)c1ccccc1` (stereo not drawn) [Compound 53, N-(2-oxo-1-phenyl-2-(4-(3-(trifluoromethyl)phenyl)piperazin-1-yl)ethyl)acetamide], the “protection in MES screening” value in series [1] came out at 75%. The responders at 100 mg/kg in series [1] was 75%; in series [2] (setting [6]), 100%; in series [2] (setting [7]) it was 100%. Besides, the ED50 came out at 89.7 mg/kg in series [1], 29.9 mg/kg in series [2] and 68 mg/kg in series [3]. In addition, the “effect on threshold for forelimb tonus” value in series [4] was “did not, however, produce any significant effect”. The “increase of threshold for generalized clonus with loss of righting reflex” value in series [4] is recorded as ~ 40%. Moreover, the “increase of threshold for the first myoclonic twitch” value in series [4] is reported as ~ 50%. In addition, in the series with mice, the “effect on neuromuscular strength (grip strength)” value is reported as “did not significantly affect”. Further, the figures for the “% Inhibition of Control Specific Binding, Na+ channel (site 2)” value with Na+ channel (site 2) (10 µM) and with Na+ channel (site 2) (100 µM) were 17.4% and 75.5%, respectively. The inhibition at 10 µM in series [5] was 4%.
Regarding `CC(=O)NC(C(=O)N1CCN(c2cccc(OC(F)(F)F)c2)CC1)c1ccccc1` (stereo not drawn) [Compound 60, N-(2-oxo-1-phenyl-2-(4-(3-(trifluoromethoxy)phenyl)piperazin-1-yl)ethyl)acetamide], in series [1], the “protection in MES screening” value was 75%, the responders at 100 mg/kg was 75% and the ED50 was determined as 73.6 mg/kg. In addition, in series [2] (setting [6]), the responders at 100 mg/kg worked out at 100%. In series [2] (setting [7]), the responders at 100 mg/kg was 100%. Further, the ED50 in series [2] amounted to 24.6 mg/kg. The ED50 in series [3] was found to be 56.3 mg/kg. Besides, in series [4], the “effect on threshold for forelimb tonus” value is on record as “devoid of any significant effects”, the “increase of threshold for generalized clonus with loss of righting reflex” value is on record as “devoid of any significant effects” and the “increase of threshold for the first myoclonic twitch” value is ~ 20%. Also, in the series on mice, the “effect on neuromuscular strength (grip strength)” value is recorded as “did not significantly affect”. For the same molecule, the “% Inhibition of Control Specific Binding, Na+ channel (site 2)” value in the series with Na+ channel (site 2) (10 µM) is reported as 37.0 (10) %. Besides, the inhibition at 10 µM in series [5] was 7%.

For the origin of these results see paper PMC9221546, “New Phenylglycinamide Derivatives with Hybrid Structure as Candidates for New Broad-Spectrum Anticonvulsants” (Cells, 2022).
